Test system: HeLa
Assay: Cytotoxicity against human HeLa cells
Format: functional

CO/N=C(/COc1ccc2c(=O)c(-c3ccccc3)coc2c1)c1ccc(OC)cc1
GC50: 7.3 µM
pGC50: 5.137

O=c1cc(-c2ccccc2)oc2cc(OC/C(=N/O)c3ccc(F)cc3)ccc12
GC50: 2 µM
pGC50: 5.699

CO/N=C(/COc1ccc2oc(-c3ccccc3)cc(=O)c2c1)c1ccc(OC)cc1
GC50: 2 µM
pGC50: 5.699

O=c1c(OC/C(=N/O)c2ccccc2)c(-c2ccccc2)oc2ccccc12
GC50: 1.8 µM
pGC50: 5.745

CO/N=C(/COc1ccc2c(=O)cc(-c3ccccc3)oc2c1)c1ccc(OC)cc1
GC50: 2.5 µM
pGC50: 5.602

O=c1c(-c2ccccc2)coc2cc(OC/C(=N/O)c3ccccc3)ccc12
GC50: 9 µM
pGC50: 5.046

C/C(COc1c(-c2ccccc2)oc2ccccc2c1=O)=N\O
GC50: 2 µM
pGC50: 5.699

CO/N=C(/COc1ccc2c(=O)cc(-c3ccccc3)oc2c1)c1ccccc1
GC50: 6.6 µM
pGC50: 5.18

CO/N=C(/COc1c(-c2ccccc2)oc2ccccc2c1=O)c1ccc(F)cc1
GC50: 2 µM
pGC50: 5.699

COc1ccc(/C(COc2ccc3c(=O)cc(-c4ccccc4)oc3c2)=N\O)cc1
GC50: 2 µM
pGC50: 5.699

COc1ccc(/C(COc2c(-c3ccccc3)oc3ccccc3c2=O)=N\O)cc1
GC50: 2 µM
pGC50: 5.699

O=c1c(-c2ccccc2)coc2cc(OC/C(=N/O)c3ccc(F)cc3)ccc12
GC50: 7.8 µM
pGC50: 5.108

CO/N=C(\C)COc1c(-c2ccccc2)oc2ccccc2c1=O
GC50: 2 µM
pGC50: 5.699

CO/N=C(/COc1c(-c2ccccc2)oc2ccccc2c1=O)c1ccccc1
GC50: 1.6 µM
pGC50: 5.796

O=c1cc(-c2ccccc2)oc2ccc(OC/C(=N/O)c3ccccc3)cc12
GC50: 0.8 µM
pGC50: 6.097

CO/N=C(/COc1ccc2oc(-c3ccccc3)cc(=O)c2c1)c1ccc(F)cc1
GC50: 2.3 µM
pGC50: 5.638

CO/N=C(/COc1ccc2oc(-c3ccccc3)cc(=O)c2c1)c1ccccc1
GC50: 2.4 µM
pGC50: 5.62

COc1ccc(/C(COc2ccc3c(=O)c(-c4ccccc4)coc3c2)=N\O)cc1
GC50: 7.6 µM
pGC50: 5.119

CO/N=C(\C)COc1ccc2c(=O)c(-c3ccccc3)coc2c1
GC50: 8.5 µM
pGC50: 5.071

C/C(COc1ccc2c(=O)cc(-c3ccccc3)oc2c1)=N\O
GC50: 2 µM
pGC50: 5.699

CO/N=C(/COc1ccc2c(=O)c(-c3ccccc3)coc2c1)c1ccc(F)cc1
GC50: 6.4 µM
pGC50: 5.194

COc1ccc(/C(COc2ccc3oc(-c4ccccc4)cc(=O)c3c2)=N\O)cc1
GC50: 1 µM
pGC50: 6

CO/N=C(/COc1c(-c2ccccc2)oc2ccccc2c1=O)c1ccc(OC)cc1
GC50: 2 µM
pGC50: 5.699

CO/N=C(\C)COc1ccc2oc(-c3ccccc3)cc(=O)c2c1
GC50: 0.9 µM
pGC50: 6.046

O=c1cc(-c2ccccc2)oc2cc(OC/C(=N/O)c3ccccc3)ccc12
GC50: 2 µM
pGC50: 5.699

C/C(COc1ccc2oc(-c3ccccc3)cc(=O)c2c1)=N\O
GC50: 1.2 µM
pGC50: 5.921

C/C(COc1ccc2c(=O)c(-c3ccccc3)coc2c1)=N\O
GC50: 9.8 µM
pGC50: 5.009

O=c1cc(-c2ccccc2)oc2ccc(OC/C(=N/O)c3ccc(F)cc3)cc12
GC50: 1.6 µM
pGC50: 5.796

CO/N=C(\C)COc1ccc2c(=O)cc(-c3ccccc3)oc2c1
GC50: 2.2 µM
pGC50: 5.658

CO/N=C(/COc1ccc2c(=O)cc(-c3ccccc3)oc2c1)c1ccc(F)cc1
GC50: 2.7 µM
pGC50: 5.569

O=c1c(OC/C(=N/O)c2ccc(F)cc2)c(-c2ccccc2)oc2ccccc12
GC50: 2.1 µM
pGC50: 5.678

CO/N=C(/COc1ccc2c(=O)c(-c3ccccc3)coc2c1)c1ccccc1
GC50: 8.2 µM
pGC50: 5.086
